Read-outs that look alike come from different tables or passages of the source.
What was measured:
Sprague-Dawley rats = assay: Bronchosecretogogue activity, Mawatari test; assay type: in vivo; conditions: rat
Source text: The bronchosecretogogue activity of YS-869 was evalued by the test of Mawatari in Sprague-Dawley rats (Mawatari H. "Experimental Studies on the expectorant action of several drugs" - Kagoshima Daiga ken Igaken Zasshi. 27, 561, 1976), in comparison with known drugs.
This method consists in determinating the amount of […] eliminated with the fluid in the respiratory tract.

rats = assay type: in vivo; conditions: 200 mg/kg p.o.
Experimental: The gastro-injuring activity was determined by administering rats with equimolecular dosages of YS-869 and acetylsalicylic acid (252 mg/kg and 200 mg/kg respectively).

rat paw = assay: Antiinflammatory activity, carrageenin oedema in rat paw; assay type: in vivo; conditions: for Paw volume 2 h / Paw volume 4 h / Paw volume 6 h / Paw volume 8 h / Paw volume 24 h / Paw volume Basal: mean ± S.E.; for AREA % M±E.S.: area of the paw volume curve; for AREA Inhibition versus control: oedema inhibiting activity
Experimental: The antiinflammatory activity of YS-869 in comparison with acetylsalicylic acid was evaluated by the test of oedema induced by carrageening injection in rat paw (Winter, Rissly, Ness.; Proc. Soc. Exp. Biol. Med., Ill, 544-47 - 1962).

rabbit = assay: Antitussive activity, citric acid induced cough; assay type: in vivo
Source text: The antitussive activity of YS-869 was evalued by the citric acid test in the rabbit (Boura et al., Prog. Brit. Pharmac. Soc. Communications, April 1970), in comparison with codeine.
Such method consists in counting the coughs stro kes caused in the animal by the nebulization of a citric acid solution.

[1] = Solubility in organic solvents; conditions: common organic solvents

Compound: N[C@@H](CSCC(=O)O)C(=O)O [S-CARBOXY-METHYL-CY-STEINE, S-carboxymethyl-cysteine]
- Fl Na (Sprague-Dawley rats; 500 mg/kg i.p.): 0.41 ± 0.036 µg/mL
- Fl Na % increase versus contr. (Sprague-Dawley rats; 500 mg/kg i.p.): 46.4%

Compound: Nc1c(Br)cc(Br)cc1CN[C@H]1CC[C@H](O)CC1 [AMBROXOL, Ambroxol]
- Fl Na (Sprague-Dawley rats; 50 mg/kg i.p.): 0.36 ± 0.037 µg/mL
- Fl Na % increase versus contr. (Sprague-Dawley rats; 50 mg/kg i.p.): 28.6%

Compound: CC(=O)Oc1ccccc1C(=O)O [Acetyl-salicy-lic acid, acetylsalicylic acid]
- ULCERS (gastric ulcers average size) (rats): 27.7±6.37 mm
- ULCERS (gastric ulcers average size) (rats; listed as acetylsalicylic acid): 27.7 mm
- Paw volume 2 h (rat paw; 200 mg/kg p.o.): 43.5 ±1.5 ml/10
- Paw volume 4 h (rat paw; 200 mg/kg p.o.): 49.3 ±2.0 ml/10
- Paw volume 6 h (rat paw; 200 mg/kg p.o.): 51.4 ±1.7 ml/10
- Paw volume 8 h (rat paw; 200 mg/kg p.o.): 51.5 ±2.0 ml/10
- Paw volume 24 h (rat paw; 200 mg/kg p.o.): 42.8 ±1.7 ml/10
- AREA % M±E.S. (rat paw; 200 mg/kg p.o.): 151.38 ±13.1%
- Paw volume Basal (rat paw; 200 mg/kg p.o.): 36.1 ±1.1 ml/10
- AREA Inhibition versus control (rat paw; 200 mg/kg p.o.): 26.94%

Compound: O=C(NC1CCSC1=O)c1cccs1 (stereo not drawn) [YS-869, N-(2-thenoyl)-N-(2-keto-2,3,4,5-tetrahydro-thiophene-3-yl)amine]
- % inhibition versus control (rabbit; 100 mg/kg i.p.): 21.5%
- Paw volume 2 h (rat paw; 252 mg/kg p.o.): 48.2 ±1.2 ml/10
- Paw volume 4 h (rat paw; 252 mg/kg p.o.): 54.1 ±2.3 ml/10
- Paw volume 6 h (rat paw; 252 mg/kg p.o.): 52.1 ±2.9 ml/10
- Paw volume 8 h (rat paw; 252 mg/kg p.o.): 51.4 ±2.5 ml/10
- Paw volume 24 h (rat paw; 252 mg/kg p.o.): 41 ±1.4 ml/10
- AREA % M±E.S. (rat paw; 252 mg/kg p.o.): 165.21 ±13.1%
- Paw volume Basal (rat paw; 252 mg/kg p.o.): 36.8 ±1.0 ml/10
- AREA Inhibition versus control (rat paw; 252 mg/kg p.o.): 20.26%
- solubility [1]: soluble in common organic solvents
- Fl Na (Sprague-Dawley rats; 500 mg/kg i.p.): 0.42 ± 0.0450 µg/mL
- Fl Na % increase versus contr. (Sprague-Dawley rats; 500 mg/kg i.p., 500 mg/kg): 50%

Compound: COc1ccc2c3c1O[C@H]1[C@@H](O)C=C[C@H]4[C@@H](C2)N(C)CC[C@@]341 [CODEINE, codeine]
- % inhibition versus control (rabbit; 25 mg/kg i.p.): 70.4%

Source: patent publication EP0120359A1, “Tetrahydrothiophenone derivative active in respiratory system affections” (YASON S.r.l, priority 1983, dated 1984)
